Measured values as given in ChEMBL document CHEMBL5505992, “Novel membrane-targeting isoxanthohumol-amine conjugates for combating methicillin-resistant Staphylococcus aureus (MRSA) infections” (Eur J Med Chem, 2024).
≈ marks a conversion by molar mass, not a printed value. Calls of active or inactive are those of the source. No cut-off for these calls is given here.

What was measured:
Staphylococcus aureus [1] = test: Antibacterial activity against Staphylococcus aureus ATCC 29213 at sub-inhibitory concentration measured after 4 passages for 16 to 18 hrs; assay type: functional, organism-based; conditions: time 16-18 hrs
Staphylococcus aureus [2] = test: Drug resistance, ratio of MIC for Staphylococcus aureus ATCC 29213 after 15 passages exposure to MIC for Staphylococcus aureus ATCC 29213 during first exposure; assay type: functional
Staphylococcus aureus [3] = test: Antibacterial activity against Staphylococcus aureus ATCC 29213 measured after 16 to 18 hrs by CLSI method; assay type: functional; conditions: time 16-18 hrs
Staphylococcus aureus [4] = test: Antibacterial activity against methicillin-resistant Staphylococcus aureus clinical isolate MRSA-11 measured after 16 to 18 hrs by CLSI method; assay type: functional; conditions: time 16-18 hrs
Staphylococcus aureus [5] = test: Antibacterial activity against methicillin-resistant Staphylococcus aureus clinical isolate MRSA-13 measured after 16 to 18 hrs by CLSI method; assay type: functional; conditions: time 16-18 hrs
Staphylococcus aureus [6] = test: Antibacterial activity against methicillin-resistant Staphylococcus aureus clinical isolate MRSA-14 measured after 16 to 18 hrs by CLSI method; assay type: functional; conditions: time 16-18 hrs
Staphylococcus aureus [7] = test: Antibacterial activity against methicillin-resistant Staphylococcus aureus clinical isolate MRSA-16 measured after 16 to 18 hrs by CLSI method; assay type: functional; conditions: time 16-18 hrs
Staphylococcus aureus [8] = test: Antibacterial activity against methicillin-resistant Staphylococcus aureus clinical isolate MRSA-17 measured after 16 to 18 hrs by CLSI method; assay type: functional; conditions: time 16-18 hrs
Staphylococcus aureus [9] = test: Antibacterial activity against methicillin-resistant Staphylococcus aureus clinical isolate MRSA-18 measured after 16 to 18 hrs by CLSI method; assay type: functional; conditions: time 16-18 hrs
Staphylococcus aureus [10] = test: Antibacterial activity against methicillin-resistant Staphylococcus aureus clinical isolate MRSA-20 measured after 16 to 18 hrs by CLSI method; assay type: functional; conditions: time 16-18 hrs
Staphylococcus aureus [11] = test: Antibacterial activity against methicillin-resistant Staphylococcus aureus clinical isolate MRSA-21 measured after 16 to 18 hrs by CLSI method; assay type: functional; conditions: time 16-18 hrs
Staphylococcus aureus [12] = test: Antibacterial activity against methicillin-resistant Staphylococcus aureus clinical isolate MRSA-22 measured after 16 to 18 hrs by CLSI method; assay type: functional; conditions: time 16-18 hrs
Staphylococcus aureus [13] = test: Antibacterial activity against methicillin-resistant Staphylococcus aureus clinical isolate MRSA-23 measured after 16 to 18 hrs by CLSI method; assay type: functional; conditions: time 16-18 hrs
Escherichia coli = test: Antibacterial activity against Escherichia coli ATCC25922 measured after 16 to 18 hrs by CLSI method; assay type: functional; conditions: time 16-18 hrs
[14] = Hemolytic activity in sheep erythrocytes incubated for 1 hr by absorbance based analysis; assay type: toxicity, cell-based, Ovis aries, Erythrocyte
[15] = Selectivity index, ratio of HC50 for hemolytic activity in sheep erythrocytes to MIC for antibacterial activity against Staphylococcus aureus ATCC 29213; assay type: toxicity, cell-based; conditions: read-out: Selectivity Index
Cell membrane [16] = test: Induction of cell membrane depolarization in methicillin-resistant Staphylococcus aureus clinical isolate MRSA-16 assessed as fold increase in fluorescence intensity at 32 ug/ml measured every 2 mins for 20 mins by DISC3(5) staining based analysis; assay type: cell membranes; conditions: dose 32.0 µg/ml
Cell membrane [17] = test: Induction of cytoplasmic membrane depolarization in methicillin-resistant Staphylococcus aureus clinical isolate MRSA-16 assessed as increase in fluorescence intensity at 32 ug/ml measured every 2 mins for 20 mins by SYTOX green staining based analysis; assay type: cell membranes; conditions: dose 32.0 µg/ml
Cell membrane [18] = test: Induction of cytoplasmic membrane depolarization in methicillin-resistant Staphylococcus aureus clinical isolate MRSA-16 assessed as fold increase in fluorescence intensity at 32 ug/ml measured every 2 mins for 20 mins by SYTOX green staining based analysis; assay type: cell membranes; conditions: dose 32.0 µg/ml

CCn1cc(C(=O)O)c(=O)c2cc(F)c(N3CCNCC3)cc21 [NORFLOXACIN]
Activity (Staphylococcus aureus [1]): Active
fold change (FC) (Staphylococcus aureus [2]): 128

COc1cc(OCCCN2CCN(C)CC2)c(CC=C(C)C)c2c1C(=O)CC(c1ccc(OCCCN3CCN(C)CC3)cc1)O2 (stereo not given)
MIC (Staphylococcus aureus [3]): 64 µg/mL (≈ 101 µM)
MIC (Staphylococcus aureus [4]): 32 µg/mL (≈ 50.4 µM)
MIC (Staphylococcus aureus [5]): 64 µg/mL (≈ 101 µM)
MIC (Staphylococcus aureus [6]): 64 µg/mL (≈ 101 µM)
MIC (Staphylococcus aureus [7]): 64 µg/mL (≈ 101 µM)
MIC (Staphylococcus aureus [8]): 32 µg/mL (≈ 50.4 µM)
MIC (Staphylococcus aureus [9]): 64 µg/mL (≈ 101 µM)
MIC (Staphylococcus aureus [10]): 64 µg/mL (≈ 101 µM)
MIC (Staphylococcus aureus [11]): 32 µg/mL (≈ 50.4 µM)
MIC (Staphylococcus aureus [12]): 32 µg/mL (≈ 50.4 µM)
MIC (Staphylococcus aureus [13]): 64 µg/mL (≈ 101 µM)
MIC (Escherichia coli): > 128 µg/mL
HC50 at 1 h [14]: > 1280 µg/mL
selectivity ratio [15]: > 20

COc1cc(OCCCCCN2CCCC(C)C2)c(CC=C(C)C)c2c1C(=O)CC(c1ccc(OCCCCCN3CCCC(C)C3)cc1)O2 (stereo not given)
MIC (Staphylococcus aureus [3]): 16 µg/mL (≈ 23.2 µM)
MIC (Staphylococcus aureus [4]): 8 µg/mL (≈ 11.6 µM)
MIC (Staphylococcus aureus [5]): 8 µg/mL (≈ 11.6 µM)
MIC (Staphylococcus aureus [6]): 8 µg/mL (≈ 11.6 µM)
MIC (Staphylococcus aureus [7]): 8 µg/mL (≈ 11.6 µM)
MIC (Staphylococcus aureus [8]): 8 µg/mL (≈ 11.6 µM)
MIC (Staphylococcus aureus [9]): 8 µg/mL (≈ 11.6 µM)
MIC (Staphylococcus aureus [10]): 8 µg/mL (≈ 11.6 µM)
MIC (Staphylococcus aureus [11]): 4 µg/mL (≈ 5.81 µM)
MIC (Staphylococcus aureus [12]): 8 µg/mL (≈ 11.6 µM)
MIC (Staphylococcus aureus [13]): 8 µg/mL (≈ 11.6 µM)
MIC (Escherichia coli): > 128 µg/mL
HC50 at 1 h [14]: 211 µg/mL
selectivity ratio [15]: 13.2

COc1cc(OCCCCCN2CCSCC2)c(CC=C(C)C)c2c1C(=O)CC(c1ccc(OCCCCCN3CCSCC3)cc1)O2 (stereo not given)
MIC (Staphylococcus aureus [3]): 32 µg/mL (≈ 45.9 µM)
MIC (Staphylococcus aureus [4]): > 128 µg/mL
MIC (Staphylococcus aureus [5]): > 128 µg/mL
MIC (Staphylococcus aureus [6]): > 128 µg/mL
MIC (Staphylococcus aureus [7]): > 128 µg/mL
MIC (Staphylococcus aureus [8]): > 128 µg/mL
MIC (Staphylococcus aureus [9]): > 128 µg/mL
MIC (Staphylococcus aureus [10]): > 128 µg/mL
MIC (Staphylococcus aureus [11]): > 128 µg/mL
MIC (Staphylococcus aureus [12]): > 128 µg/mL
MIC (Staphylococcus aureus [13]): > 128 µg/mL
MIC (Escherichia coli): > 128 µg/mL
HC50 at 1 h [14]: > 640 µg/mL
selectivity ratio [15]: > 20

COc1cc(OCCCCCN2CCOCC2)c(CC=C(C)C)c2c1C(=O)CC(c1ccc(OCCCCCN3CCOCC3)cc1)O2 (stereo not given)
MIC (Staphylococcus aureus [3]): 16 µg/mL (≈ 24.1 µM)
MIC (Staphylococcus aureus [4]): 16 µg/mL (≈ 24.1 µM)
MIC (Staphylococcus aureus [5]): 16 µg/mL (≈ 24.1 µM)
MIC (Staphylococcus aureus [6]): 16 µg/mL (≈ 24.1 µM)
MIC (Staphylococcus aureus [7]): 16 µg/mL (≈ 24.1 µM)
MIC (Staphylococcus aureus [8]): 16 µg/mL (≈ 24.1 µM)
MIC (Staphylococcus aureus [9]): 16 µg/mL (≈ 24.1 µM)
MIC (Staphylococcus aureus [10]): 16 µg/mL (≈ 24.1 µM)
MIC (Staphylococcus aureus [11]): 16 µg/mL (≈ 24.1 µM)
MIC (Staphylococcus aureus [12]): 8 µg/mL (≈ 12 µM)
MIC (Staphylococcus aureus [13]): 16 µg/mL (≈ 24.1 µM)
MIC (Escherichia coli): > 128 µg/mL
HC50 at 1 h [14]: > 1280 µg/mL
selectivity ratio [15]: > 80

COc1cc(OCCCN2CCCCC2C)c(CC=C(C)C)c2c1C(=O)CC(c1ccc(OCCCN3CCCCC3C)cc1)O2 (stereo not given)
MIC (Staphylococcus aureus [3]): 32 µg/mL (≈ 50.6 µM)
MIC (Staphylococcus aureus [4]): 32 µg/mL (≈ 50.6 µM)
MIC (Staphylococcus aureus [5]): 32 µg/mL (≈ 50.6 µM)
MIC (Staphylococcus aureus [6]): 32 µg/mL (≈ 50.6 µM)
MIC (Staphylococcus aureus [7]): 16 µg/mL (≈ 25.3 µM)
MIC (Staphylococcus aureus [8]): 32 µg/mL (≈ 50.6 µM)
MIC (Staphylococcus aureus [9]): 32 µg/mL (≈ 50.6 µM)
MIC (Staphylococcus aureus [10]): 32 µg/mL (≈ 50.6 µM)
MIC (Staphylococcus aureus [11]): 32 µg/mL (≈ 50.6 µM)
MIC (Staphylococcus aureus [12]): 16 µg/mL (≈ 25.3 µM)
MIC (Staphylococcus aureus [13]): 32 µg/mL (≈ 50.6 µM)
MIC (Escherichia coli): > 128 µg/mL
HC50 at 1 h [14]: > 1280 µg/mL
selectivity ratio [15]: > 40

CC[C@H](C)[C@H](NC(=O)CN)C(=O)NCC(=O)N[C@@H](C)C(=O)N[C@H](C(=O)N[C@@H](CC(C)C)C(=O)N[C@@H](CCCCN)C(=O)N[C@H](C(=O)N[C@@H](CC(C)C)C(=O)N[C@H](C(=O)N[C@H](C(=O)NCC(=O)N[C@@H](CC(C)C)C(=O)N1CCC[C@H]1C(=O)N[C@@H](C)C(=O)N[C@@H](CC(C)C)C(=O)N[C@H](C(=O)N[C@@H](CO)C(=O)N[C@@H](Cc1c[nH]c2ccccc12)C(=O)N[C@H](C(=O)N[C@@H](CCCCN)C(=O)N[C@@H](CCCNC(=N)N)C(=O)N[C@@H](CCCCN)C(=O)N[C@@H](CCCNC(=N)N)C(=O)N[C@@H](CCC(N)=O)C(=O)N[C@@H](CCC(N)=O)C(N)=O)[C@@H](C)CC)[C@@H](C)CC)[C@@H](C)O)[C@@H](C)O)C(C)C)C(C)C
fold change (FC) (Cell membrane [16]): 4.4
Activity (Cell membrane [17]): Active
fold change (FC) (Cell membrane [18]): 7
